Test results from ChEMBL document CHEMBL1148552, “Pulvinones as bacterial cell wall biosynthesis inhibitors” (Bioorg Med Chem Lett, 2006).
≈ marks a conversion by molar mass, not a printed value.

How the values were obtained:
[1] = tested on: Enterococcus faecalis; experiment: Antibacterial activity against Enterococcus faecalis; format: functional; details: GC 4555
[2] = tested on: Streptococcus pneumoniae; experiment: Antibacterial activity against penicillin resistant Streptococcus pneumoniae; format: functional; details: GC 1894
[3] = tested on: Enterococcus faecalis; experiment: Antibacterial activity against vancomycin resistant Enterococcus faecalis; format: functional; details: GC 2242
[4] = biological target: T1, UDP-N-acetylmuramoylalanine--D-glutamate ligase (Escherichia coli K-12, UniProt P14900); experiment: Inhibitory activity against MurD in Escherichia coli
T1 sequence (P14900 whole entry): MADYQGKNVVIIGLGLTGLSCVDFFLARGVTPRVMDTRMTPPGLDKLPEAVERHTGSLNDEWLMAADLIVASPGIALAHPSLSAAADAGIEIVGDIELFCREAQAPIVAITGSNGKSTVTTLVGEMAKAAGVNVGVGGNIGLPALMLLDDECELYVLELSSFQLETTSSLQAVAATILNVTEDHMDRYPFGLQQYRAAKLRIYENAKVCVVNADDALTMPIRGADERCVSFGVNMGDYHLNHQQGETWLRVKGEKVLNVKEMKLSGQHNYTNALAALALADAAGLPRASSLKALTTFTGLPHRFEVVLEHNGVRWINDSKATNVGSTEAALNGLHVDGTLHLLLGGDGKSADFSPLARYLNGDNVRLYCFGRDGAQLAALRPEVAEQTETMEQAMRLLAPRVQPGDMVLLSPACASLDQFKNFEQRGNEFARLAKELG

[5] = tested on: Staphylococcus aureus; experiment: Antibacterial activity against methicillin resistant Staphylococcus aureus; format: functional; details: GC 1131
[6] = tested on: Staphylococcus aureus; experiment: Antibacterial activity against Staphylococcus aureus; format: functional; details: GC 4543
[7] = biological target: T2, UDP-N-acetylenolpyruvoylglucosamine reductase (Escherichia coli K-12, UniProt P08373); experiment: Inhibitory activity against MurB in Escherichia coli
T2 sequence (P08373 whole entry): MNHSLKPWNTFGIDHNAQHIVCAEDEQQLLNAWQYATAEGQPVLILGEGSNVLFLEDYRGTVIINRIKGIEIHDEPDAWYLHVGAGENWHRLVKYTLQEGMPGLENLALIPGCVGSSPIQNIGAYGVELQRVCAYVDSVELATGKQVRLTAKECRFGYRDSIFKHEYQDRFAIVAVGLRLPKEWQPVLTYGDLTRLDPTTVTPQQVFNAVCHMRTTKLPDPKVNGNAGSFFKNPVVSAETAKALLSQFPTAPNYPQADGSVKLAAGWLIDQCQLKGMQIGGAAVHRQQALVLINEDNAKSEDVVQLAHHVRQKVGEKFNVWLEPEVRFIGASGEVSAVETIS

[8] = biological target: UDP-N-acetylglucosamine 1-carboxyvinyltransferase (Escherichia coli K-12, UniProt P0A749); experiment: Inhibitory activity against MurA in Escherichia coli
[9] = biological target: T3, UDP-N-acetylmuramate--L-alanine ligase (Staphylococcus aureus, UniProt O31211); experiment: Inhibitory activity against MurC in Staphylococcus aureus
T3 sequence (O31211 whole entry): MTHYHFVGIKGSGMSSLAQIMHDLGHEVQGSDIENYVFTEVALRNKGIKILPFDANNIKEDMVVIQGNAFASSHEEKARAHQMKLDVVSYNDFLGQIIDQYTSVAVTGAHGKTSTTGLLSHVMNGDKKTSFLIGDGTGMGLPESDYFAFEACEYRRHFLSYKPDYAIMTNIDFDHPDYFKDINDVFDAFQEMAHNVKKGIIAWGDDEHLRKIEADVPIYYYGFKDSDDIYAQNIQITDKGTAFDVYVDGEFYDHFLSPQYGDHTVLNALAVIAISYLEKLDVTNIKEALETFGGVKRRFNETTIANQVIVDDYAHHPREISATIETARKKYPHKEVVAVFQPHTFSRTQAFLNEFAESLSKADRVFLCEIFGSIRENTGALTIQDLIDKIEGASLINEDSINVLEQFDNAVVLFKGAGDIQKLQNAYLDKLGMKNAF

[10] = biological target: T4, UDP-N-acetylmuramoylalanine--D-glutamate ligase (Staphylococcus aureus, UniProt P0A091); experiment: Inhibitory activity against MurD in Staphylococcus aureus
T4 sequence (P0A091 whole entry): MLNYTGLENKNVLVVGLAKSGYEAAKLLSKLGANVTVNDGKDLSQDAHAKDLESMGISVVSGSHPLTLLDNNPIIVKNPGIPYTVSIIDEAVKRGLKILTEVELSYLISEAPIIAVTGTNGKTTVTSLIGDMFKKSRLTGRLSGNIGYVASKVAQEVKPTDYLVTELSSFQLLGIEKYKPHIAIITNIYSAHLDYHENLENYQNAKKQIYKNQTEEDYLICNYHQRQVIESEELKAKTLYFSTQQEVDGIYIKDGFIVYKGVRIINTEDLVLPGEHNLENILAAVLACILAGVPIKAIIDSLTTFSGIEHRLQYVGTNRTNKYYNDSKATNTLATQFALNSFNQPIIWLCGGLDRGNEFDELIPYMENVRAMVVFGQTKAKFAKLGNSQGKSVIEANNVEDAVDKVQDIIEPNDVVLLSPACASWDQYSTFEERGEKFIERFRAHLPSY

[11] = biological target: UDP-N-acetylmuramate--L-alanine ligase (Escherichia coli K-12, UniProt P17952); experiment: Inhibitory activity against MurC in Escherichia coli
UDP-N-acetylmuramate--L-alanine ligase (Escherichia coli K-12, UniProt P17952), sequence (P17952 whole entry): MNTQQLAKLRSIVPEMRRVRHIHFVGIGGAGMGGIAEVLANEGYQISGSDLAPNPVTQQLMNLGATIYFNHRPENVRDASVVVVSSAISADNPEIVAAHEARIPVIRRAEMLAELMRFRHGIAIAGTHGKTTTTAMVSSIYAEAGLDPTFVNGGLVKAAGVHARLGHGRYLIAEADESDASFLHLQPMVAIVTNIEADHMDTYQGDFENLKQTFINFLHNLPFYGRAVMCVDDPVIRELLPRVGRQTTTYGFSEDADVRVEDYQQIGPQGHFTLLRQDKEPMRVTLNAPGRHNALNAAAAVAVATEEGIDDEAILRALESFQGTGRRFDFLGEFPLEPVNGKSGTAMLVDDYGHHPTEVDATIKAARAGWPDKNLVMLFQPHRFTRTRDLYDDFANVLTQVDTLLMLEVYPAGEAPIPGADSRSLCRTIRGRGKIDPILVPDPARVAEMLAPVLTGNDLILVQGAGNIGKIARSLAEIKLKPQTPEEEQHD

UDP-N-acetylglucosamine 1-carboxyvinyltransferase, sequence (P0A749 whole entry): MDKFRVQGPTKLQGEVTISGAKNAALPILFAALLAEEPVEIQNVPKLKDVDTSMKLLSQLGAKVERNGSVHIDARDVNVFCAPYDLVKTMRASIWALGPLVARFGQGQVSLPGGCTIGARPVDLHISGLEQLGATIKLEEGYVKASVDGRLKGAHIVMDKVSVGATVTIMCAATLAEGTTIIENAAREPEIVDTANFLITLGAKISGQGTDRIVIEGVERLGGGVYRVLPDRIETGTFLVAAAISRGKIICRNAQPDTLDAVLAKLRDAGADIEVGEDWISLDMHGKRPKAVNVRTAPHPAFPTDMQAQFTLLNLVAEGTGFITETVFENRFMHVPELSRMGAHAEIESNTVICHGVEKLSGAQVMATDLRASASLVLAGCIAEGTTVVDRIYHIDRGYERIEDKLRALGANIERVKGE

SMILES | MIC [1] [µg/mL] | MIC [2] [µg/mL] | MIC [3] [µg/mL] | IC50 [4] [µM] | MIC [5] [µg/mL] | MIC [6] [µg/mL] | IC50 [7] [µM] | IC50 [8] [µM] | IC50 [9] [µM] | IC50 [10] [µM] | IC50 [11] [µM]
O=C1O/C(=C\c2ccc(-c3ccccc3)cc2)C(O)=C1c1cccc2ccccc12 | 32 (≈ 82 µM) | 4 (≈ 10.2 µM) | 8 (≈ 20.5 µM) | > 64 | 8 (≈ 20.5 µM) | 4 (≈ 10.2 µM) | > 64 |  |  |  | 
O=C1O/C(=C\c2cccc3ccccc23)C(O)=C1c1ccc(Cl)cc1 | 16 (≈ 45.9 µM) | 0.5 (≈ 1.43 µM) | 8 (≈ 22.9 µM) | > 71.7 | 8 (≈ 22.9 µM) | 8 (≈ 22.9 µM) |  | > 71.7 |  |  | 
O=C1O/C(=C\c2ccc(-c3cc(Cl)cc(Cl)c3)cc2)C(O)=C1c1cc(Cl)cc(Cl)c1 | 1 (≈ 2.09 µM) | ≤ 0.12 | 0.5 (≈ 1.05 µM) |  | 4 (≈ 8.37 µM) | 0.5 (≈ 1.05 µM) |  |  |  |  | 
Cc1cc(/C=C2\OC(O)=C(c3cccc(Cl)c3)C2=O)ccc1-c1ccccc1C(F)(F)F | 4 (≈ 8.76 µM) | ≤ 0.12 | 2 (≈ 4.38 µM) |  | 2 (≈ 4.38 µM) | 1 (≈ 2.19 µM) | 6.57 | 8.76 | 32.8 | 26.3 | 
COc1ccc(C2=C(O)O/C(=C\c3cccc4ccccc34)C2=O)cc1 | > 128 | 8 (≈ 23.2 µM) | 32 (≈ 92.9 µM) | > 72.6 | 32 (≈ 92.9 µM) | 64 (≈ 186 µM) | > 72.6 | > 72.6 |  |  | 46.5
COc1cc(/C=C2\OC(O)=C(c3cc(Cl)cc(Cl)c3)C2=O)ccc1-c1ccccc1C(F)(F)F | 2 (≈ 3.94 µM) | 0.5 (≈ 0.986 µM) | 1 (≈ 1.97 µM) |  | 0.5 (≈ 0.986 µM) | 0.5 (≈ 0.986 µM) | 3.94 | 7.89 | 39.4 | 33.5 | 
O=C1O/C(=C\C2CCCCC2)C(O)=C1c1cccc(C(F)(F)F)c1 | 64 (≈ 189 µM) | ≤ 0.12 | 32 (≈ 94.6 µM) | > 73.9 | 32 (≈ 94.6 µM) | > 128 | > 73.9 | > 73.9 |  |  | 
O=C1O/C(=C\c2cccc(C(F)(F)F)c2)C(O)=C1c1ccc(-c2ccccc2)c(F)c1 | 1 (≈ 2.35 µM) | 0.25 (≈ 0.586 µM) | 0.25 (≈ 0.586 µM) | > 58.6 | 2 (≈ 4.69 µM) | 2 (≈ 4.69 µM) |  | 23.5 |  |  | 18.8
O=C1O/C(=C\c2cccc(C(F)(F)F)c2)C(O)=C1c1ccc2ccccc2c1 | 32 (≈ 83.7 µM) | 8 (≈ 20.9 µM) | 8 (≈ 20.9 µM) | > 65.4 | 8 (≈ 20.9 µM) | 8 (≈ 20.9 µM) |  |  |  |  | 
O=C1O/C(=C\c2cccc(C(F)(F)F)c2Cl)C(O)=C1c1ccc(-c2ccccc2)c(F)c1 | 2 (≈ 4.34 µM) | 0.25 (≈ 0.543 µM) | 0.5 (≈ 1.09 µM) |  | 1 (≈ 2.17 µM) | 1 (≈ 2.17 µM) |  |  |  |  | 
O=C1O/C(=C\c2cccc(C(F)(F)F)c2)C(O)=C1c1ccc(Cl)cc1 | 16 (≈ 43.6 µM) | 1 (≈ 2.73 µM) | 8 (≈ 21.8 µM) | > 68.2 | 16 (≈ 43.6 µM) | 8 (≈ 21.8 µM) | 24.5 | 38.2 |  |  | 16.4
O=C1O/C(=C\c2cccc(C(F)(F)F)c2)C(O)=C1c1ccc(-c2ccccc2)cc1 | 8 (≈ 19.6 µM) | 0.5 (≈ 1.22 µM) | 4 (≈ 9.79 µM) | > 61.2 | 4 (≈ 9.79 µM) | 4 (≈ 9.79 µM) | 12.2 |  |  |  | 
O=C1O/C(=C\c2cc(C(F)(F)F)ccc2Cl)C(O)=C1c1ccc(-c2ccccc2)c(F)c1 | 4 (≈ 8.68 µM) | 0.25 (≈ 0.543 µM) | 1 (≈ 2.17 µM) |  | 1 (≈ 2.17 µM) | 1 (≈ 2.17 µM) |  |  |  |  | 
O=C1O/C(=C\c2ccc(-c3ccccc3)cc2)C(O)=C1c1ccc2ccccc2c1 | 8 (≈ 20.5 µM) | 2 (≈ 5.12 µM) | 4 (≈ 10.2 µM) | > 64 | 16 (≈ 41 µM) | 4 (≈ 10.2 µM) |  | > 64 |  |  | 
